Source: patent publication US20240059700A1, “NOVEL DIACYLGLYCERIDE O-ACYLTRANSFERASE 2 INHIBITORS” (Merck Sharp & Dohme LLC, priority 2020, published 2024)

molecular target: human DGAT2 (hDGAT2) (Homo sapiens (Human), UniProt Q96PD7); assay: DGAT2 Enzymatic Activity Assay; assay type: biochemical; conditions: membrane prep of Sf-9 insect cells expressing hDGAT2; 13C18-triolein product by LC/MS/MS
Outline: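 Membranes from Sf-9 cells infected with untagged hDGAT2 baculovirus (8 ng/μL) incubated at rt in 100 mM Tris pH 7.0, 20 mM MgCl2, 5% ethanol with 25 μM diolein and 5 μM 13C oleoyl-CoA. 13C18-triolein product quantified by LC/MS/MS against 13C21-triolein internal standard; IC50 by 4-parameter fit.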

Sequence of human DGAT2 (hDGAT2) (Q96PD7 whole entry): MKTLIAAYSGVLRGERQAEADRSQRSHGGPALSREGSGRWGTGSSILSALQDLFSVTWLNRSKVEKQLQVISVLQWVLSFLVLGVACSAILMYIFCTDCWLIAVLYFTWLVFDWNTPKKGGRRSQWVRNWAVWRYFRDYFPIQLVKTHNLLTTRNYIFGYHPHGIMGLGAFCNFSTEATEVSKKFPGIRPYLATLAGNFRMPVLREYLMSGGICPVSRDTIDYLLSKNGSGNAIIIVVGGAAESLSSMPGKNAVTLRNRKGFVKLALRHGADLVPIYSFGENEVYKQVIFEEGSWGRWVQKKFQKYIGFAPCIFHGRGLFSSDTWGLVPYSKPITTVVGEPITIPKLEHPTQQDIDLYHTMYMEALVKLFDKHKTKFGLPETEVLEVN

SMILES | IC50
Cn1nccc1-c1cn(C2CCOCC2)c2cc(C(=O)N[C@@]3(C)CCS(=O)(=O)C3)c(F)cc12 [Example 83] | 5430 nM
CC(C)n1nc(-c2cc(OCC(F)(F)F)ncc2F)c2ncc(C(=O)NC3(C)CS(=O)(=O)C3)cc21 [Example 122, 3-(5-fluoro-2-(2,2,2-trifluoroethoxy)pyridin-4-yl)-1-isopropyl-N-(3-methyl-1,1-dioxidothietan-3-yl)-1H-pyrazolo[4,3-b]pyridine-6-carboxamide] | 7.7 nM
CC(C)n1nc(-c2cccc(C3(C(F)(F)F)CC3)c2)c2ncc(C(=O)NC3(C)CS(=O)(=O)C3)cc21 [Example 107, 1-isopropyl-N-(3-methyl-1,1-dioxidothietan-3-yl)-3-(3-(1-(trifluoromethyl)cyclopropyl)phenyl)-1H-pyrazolo[4,3-b]pyridine-6-carboxamide] | 2280 nM
C[C@]1(NC(=O)c2cnc3c(-c4ccccc4Cl)cn(-c4ccc(F)cc4)c3c2)CCS(=O)(=O)C1 [Example 11, (S)-3-(2-chlorophenyl)-1-(4-fluorophenyl)-N-(3-methyl-1,1-dioxidotetrahydrothiophen-3-yl)-1H-pyrrolo[3,2-b]pyridine-6-carboxamide] | 186 nM
CC(C)n1nc(-c2cccc(OC(F)F)c2)c2ncc(C(=O)N[C@H]3CCC[C@H]3O)cc21 [Example 44, 3-(3-(difluoromethoxy)phenyl)-N-((1S,2R)-2-hydroxycydopentyl)-1-isopropyl-1H-pyrazolo[4,3-b]pyridine-6-carboxamide] | 64 nM
Cc1nc2c(-c3nn(C(C)C)c4cc(C(=O)NC5(C)CS(=O)(=O)C5)cnc34)cccc2o1 [Example 123, 1-isopropyl-N-(3-methyl-1,1-dioxidothietan-3-yl)-3-(2-methylbenzo[d]oxazol-4-yl)-1H-pyrazolo[4,3-b]pyridine-6-carboxamide] | 487 nM
N[C@@H]1CCC[C@H]1NC(=O)c1cnc2c(-c3cccc(OC(F)F)c3)cn(-c3ncc(F)cn3)c2c1 [Example 21, N-((1R,2R)-2-aminocyclopentyl)-3-(3-(difluoromethoxy)phenyl)-1-(5-fluoropyrimidin-2-yl)-1H-pyrrolo[3,2-b]pyridine-6-carboxamide] | 6530 nM
CC1(NC(=O)c2cnc3c(-c4cccc(OC(F)F)c4)nn(C4COC4)c3c2)CS(=O)(=O)C1 [Example 61, 3-[3-(difluoromethoxy)phenyl]-N-(3-methyl-1,1-dioxo-thietan-3-yl)-1-(oxetan-3-yl)pyrazolo[4,3-b]pyridine-6-carboxamide] | 65 nM
CC(C)NC(=O)c1cnc2c(-c3cccc(OC(F)F)c3)cn(-c3ncc(F)cn3)c2c1 [Example 16, 3-(3-(difluoromethoxy)phenyl)-1-(5-fluoropyrirnidin-2-yl)-N-isopropyl-1H-pyrrolo[3,2-b]pyridine-6-carboxamide] | 209 nM
Cc1ncc(OC(F)F)cc1-c1nn(C(C)C)c2cc(C(=O)NC3(C)CS(=O)(=O)C3)ncc12 [Example 35, 3-(5-(difluoromethoxy)-2-methylpyridin-3-yl)-1-isopropyl-N-(3-methyl-1,1-dioxidothietan-3-yl)-1H-pyrazolo[4,3-c]pyridine-6-carboxamide] | 285 nM
CC(C)n1nc(-c2cc(OC(F)F)ccc2Cl)c2ncc(C(=O)NC3(C)CS(=O)(=O)C3)cc21 [Example 120, 3-(2-chloro-5-(difluoromethoxy)phenyl)-1-isopropyl-N-(3-methyl-1,1-dioxidothietan-3-yl)-1H-pyrazolo[4,3-b]pyridine-6-carboxamide] | 7.2 nM
CC(C)n1nc(-c2cccc(OC(F)(F)F)c2)c2ncc(C(=O)NC3(C)CS(=O)(=O)C3)cc21 [Example 119, 1-isopropyl-N-(3-methyl-1,1-dioxidothietan-3-yl)-3-(3-(trifluoromethoxy)phenyl)-1H-pyrazolo[4,3-b]pyridine-6-carboxamide] | 97 nM
